Measured values: patent publication US10766890B2, “Hepatitis B core protein modulators” (Assembly Biosciences, Inc., priority 2015, dated 2020)

What was measured:
[1] = tested on: HBV; experiment: Viral load production in AD38 cells, quantitative PCR of the core sequence in supernatant; assay type: cell-based; conditions: Hepatitis B virus, 144 h, 10 μM compound, 6 days at 37° C., supernatant qPCR vs DMSO control, read-out: AD38 Viral Load (%) (VL with cmpd/VL in DMSO control) at 10 μM
Experimental: (§1) Example 63: Assay Measuring Activity of Compounds on Viral Production in and on Viability of AD38 Cells
(§2) AD38 cells were then re-suspended with 10 mL of Treatment Medium and counted. Wells of a collagen coated 96-well NUNC microtiter plate were seeded at 50,000/well in 180 μL of Treatment Medium, and 20 μL of in treatment media with either 10% DMSO (Control) or a 10× solution of compound in 10% DMSO was added. Plates were incubated for 6 days at 37° C.
Viral load production was assayed by quantitative PCR of the core sequence. […] The PCR mixture was incubated at 45° C. for 5 minutes, then 95° C. for 10 min, followed by 40 cycles of 10 seconds at 95° C. and 20 seconds at 60° C. Viral load was quantitated against known standards by using ViiA™ 7 Software. Viral load in the supernatant from wells with treated cells were compared against viral load in supernatant from DMSO control wells (≥3 per plate).

[2] = tested on: AD38 cells; experiment: Viability of AD38 cells, Promega CellTiter-Glo; assay type: cell-based; conditions: 10 μM compound, 6 days, CellTiter-Glo luminescence, controls being 100%
Experimental: as §1, §2
At the end of compound treatment period cell viability was assessed using a Promega CellTiter-Glo protocol. All supernatant was removed the previously treated 96-well microtiter plate, and 50 μL Tetracycline-free treatment medium (DMEM/F12 (1:1), 1×Pen/step (cat#: 30-002-CL, Mediatech, Inc), with 2% FBS, Tet-system approved (cat#: 631106, Clontech), and 1% DMSO was added back to each well. Another 50 μL of CellTiter-Glo reagent solution (Promega, G7573) was then added at room temperature and the contents mixed for 2 minutes on an orbital shaker to induce cell lysis. This was followed by incubation at room temperature for 10 minutes to stabilize the luminescent signal. The luminescence was recorded for 0.2 seconds per well on a Tecan multimode platereader (Infinite M1000 pro). The luminescent signal from each well was normalized against that of untreated (DMSO) control wells. All results in Table 3 were reported with percent viability (with controls being 100%).

| SMILES | activity at 10 µM [1] | AD38 Viability Normalized Result (cmpd/DMSO %) at 10 μM [2] |
| --- | --- | --- |
| COc1cccc(Oc2cccc(CNC(=O)c3ccc4c(c3)NC(=O)c3ccccc3S4(=O)=O)c2)c1 [Compound 810-A, N-(3-(3-methoxyphenoxy)benzyl)-11-oxo-10,11-dihydrodibenzo[b,f][1, 4]thiazepine-8-carboxamide 5,5-dioxide] | 1.1% | 90% |
| O=C(NCc1cccc(Oc2ccc(O)cc2)c1)c1ccc2c(c1)NC(=O)c1ccccc1S2(=O)=O [Compound 811, N-(3-(4-hydroxyphenoxy)benzyl)-11-oxo-10,11-dihydrodibenzo[b,f][1,4]thiazepine-8-carboxamide 5,5-dioxide] | 1.2% | 95% |
| COc1ccc(Oc2cccc(CNC(=O)c3ccc4c(c3)NC(=O)c3ccccc3S4(=O)=O)c2)cc1 [Compound 811-A, N-(3-(4-methoxyphenoxy)benzyl)-11-oxo-10,11-dihydrodibenzo[b,f][1,4]thiazepine-8-carboxamide 5,5-dioxide] | 1.9% | 86% |
| O=C(NCc1cccc(Sc2cccc(O)c2)c1)c1ccc2c(c1)NC(=O)c1ccccc1S2(=O)=O [Compound 812, N-(3-((3-hydroxyphenyl)thio)benzyl)-11-oxo-10,11-dihydrodibenzo[b,f][1,4]thiazepine-8-carboxamide 5,5-dioxide] | 5.1% | 99% |
| COc1cccc(Sc2cccc(CNC(=O)c3ccc4c(c3)NC(=O)c3ccccc3S4(=O)=O)c2)c1 [Compound 812-A, N-(3-((3-methoxyphenyl)thio)benzyl)-11-oxo-10,11-dihydrodibenzo[b,f][1,4]thiazepine-8-carboxamide 5,5-dioxide] | 1.4% | 66% |
| COc1ccc(Sc2cccc(CNC(=O)c3ccc4c(c3)NC(=O)c3ccccc3S4(=O)=O)c2)cc1 [Compound 813, N-(3-((4-methoxyphenyl)thio)benzyl)-11-oxo-10,11-dihydrodibenzo[b,f][1,4]thiazepine-8-carboxamide 5,5-dioxide] | 1.2% | 44% |
